Here are results for 106 molecules from PubChem BioAssay AID651563 (Sanford-Burnham Center for Chemical Genomics, 2012).

“And” between values parts separate entries of the source, which are not always exact repeats. Identical values can stand only once. The source made the active and inactive calls.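 The calls were made as follows: active = compounds whose IC50 is 20 micromolar or lower, counted as confirmed SKN-1 reporter blockers; inactive = the rest.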

In the test the test system is C. elegans VP596 Pgst-4::GFP/RFP ratio, acrylamide, 24 h. Nature of the test: C. elegans gst-4 reporter suppression, concentration series – whole organism, GFP/RFP fluorescence ratio, set 2, strain VP596, SKN-1 inhibitor project, dose response (AID 651563).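 Also: red signal is driven by the dop-3 promoter and serves as the normalizer.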
On to `O=C(/C=C/c1ccccc1)/C=C/c1ccccc1`, for which the IC50 (usually the concentration that gives 50% inhibition) is 16.2 µM.

On to `O=[N+]([O-])c1ccc2nc(-c3ccccc3)oc2c1`, for which the IC50 is 3.84 µM.

Regarding `CCSc1nnc(-c2ccc(Cl)cc2Cl)o1`, the IC50 is 58.5 µM (inactive).

In the case of `O=C(c1ccc(Cl)cc1)c1cc([N+](=O)[O-])ccc1N1CCOCC1`, the IC50 was > 100 µM (inactive).

Regarding `Clc1ccc2nc(-c3ccc(Br)s3)cn2c1`, the IC50 was 21.6 µM (inactive).

With `COc1cc(CNC(C)(C)CO)cc(Br)c1OCc1ccc(Cl)cc1`, the IC50 is 19.7 µM.

On to `O=C(/C=C/c1ccccc1)Nc1ccc(CN2CCOCC2)cc1`, for which the IC50 is 19.3 µM.

In the case of `CN(C)C(CNC(=O)CCc1nc2cc(Cl)ccc2n(Cc2ccccc2)c1=O)c1ccccc1` (stereo unspecified), the IC50 is 26.1 µM (inactive).

`N/C(=N\OC(=O)c1cc(Br)ccc1Cl)c1ccccn1`: the IC50 was 53.5 µM (inactive).

In the case of `O=C(Nc1nc(-c2ccccc2)cs1)c1cccs1`, the IC50 was 21.9 µM (inactive).

Consider `O=[N+]([O-])c1ccc(Nc2ccccc2)c2nonc12`, for which the IC50 is 49.6 µM (inactive).

Consider `O=C(/C(C=Nc1ccc(Br)cc1)=C(/O)c1ccco1)C(F)(F)F`, for which the IC50 is 21 µM (inactive).

Regarding `Cc1ccc(C=Cc2ccccn2)cc1`, the IC50 was > 100 µM (inactive).

On to `Clc1ccc(-c2nnc(-c3ccccc3)o2)cn1`, for which the IC50 was > 100 µM (inactive).

Turning to `C(=C\c1nnc(-c2cccs2)o1)/c1ccccc1`, the IC50 is 15.9 µM.

Regarding `Cn1c(=O)c2c(-c3ccccc3)n(-c3ccc(N)cc3)cc2n(C)c1=O`, the IC50 was 23.5 µM (inactive).

`Clc1cccc(CSc2ncn(-c3ccccc3)n2)c1`: the IC50 was 37.5 µM (inactive).

Turning to `Fc1ccc(-c2cnc(-c3cccs3)o2)cc1`, the IC50 was 27.5 µM (inactive).

`CC(C)c1ccc(-c2nc3ccccc3s2)cc1`: the IC50 is > 100 µM (inactive).

`Brc1cccc(OCCSc2ncccn2)c1`: the IC50 is > 100 µM (inactive).

As for `O=C(C=Cc1ccco1)c1ccc2ccccc2c1`, the IC50 was 31.7 µM (inactive).

`Fc1ccc(COc2ccc(-c3nnco3)cc2)cc1`: the IC50 was 7.45 µM.

On to `CSc1cccc(NC(=O)c2cccc3cccnc23)c1`, for which the IC50 is 12.7 µM.

Take `CCOC(=O)Nc1nc(-c2ccc(F)cc2F)cs1`: the IC50 is 18.1 µM.

For `O=C(NC(=S)Nc1ccc(CN2CCCCC2)cc1)c1cc2ccccc2o1`, the IC50 was 94.9 µM (inactive).

As to `O=C(/C=C/Nc1ccc(F)cc1F)c1ccco1`, the IC50 was 22.7 µM (inactive).

Consider `Clc1ccc(C#Cc2cccnc2)cc1`, for which the half-maximal inhibitory concentration (IC50) was 19.5 µM.

As for `O=C(Nc1nccs1)c1ccc2ccccc2c1`, the IC50 is 23.8 µM (inactive).

In the case of `Fc1ccc(-c2csc(-c3ccncc3)n2)cc1`, the IC50 was 5.86 µM.

On to `COC(=O)c1c(-c2ccccc2)noc1-c1ccccc1`, for which the IC50 is 49.3 µM (inactive).

Consider `CC/C(=C\c1ccc(Cl)cc1)c1ccncc1`, for which the IC50 was 28.2 µM (inactive).

`O=C(/C=C/c1cccs1)c1ccc(Br)cc1`: the IC50 was 20.8 µM (inactive).

Consider `Clc1ccc(C=Cc2ccccn2)cc1`, for which the IC50 is 10.4 µM.

For `Clc1ccc(OCc2cnc(Cl)s2)cc1`, the IC50 is 23.1 µM (inactive).

With `Cc1cc(-c2nc3cc(F)ccc3s2)ccc1N`, the IC50 is 18.3 µM.

Consider `Nc1ccc2c(Cl)cc(Cl)cc2c1`, for which the IC50 was 28.5 µM (inactive).

For `c1ccc(SCc2cc(-c3ccccc3)no2)cc1`, the IC50 is 12.8 µM.

As to `O=C(/C=C/Nc1ccccc1F)c1cccs1`, the IC50 is 27.9 µM (inactive).

Take `Clc1ccccc1-c1nnc(-c2ccccc2Cl)o1`: the IC50 was 1.79 µM.

In the case of `Clc1ccc(CSc2ncn(-c3ccccc3)n2)cc1`, the IC50 is 11.2 µM.

Consider `O=C(Nc1ccc(Cl)cn1)c1ccccc1F`, for which the IC50 is 20.6 µM (inactive).

Consider `Clc1ncc(CSc2ccccc2)s1`, for which the IC50 is > 100 µM (inactive).

In the case of `Fc1ccc(Cn2nnc(-c3ccc(CN4CCOCC4)cc3)n2)cc1`, the IC50 is 19.9 µM.

Take `CC(C)c1ccc(C(=O)Nc2ccc(CN3CCOCC3)cc2)cc1`: the IC50 was 4.79 µM.

On to `O=C(/C=C/Nc1ccc(Br)cc1F)c1ccco1`, for which the IC50 was 2.19 µM.

Consider `Clc1ccc(Nc2nc(-c3cccs3)cs2)nc1`, for which the IC50 is 11.5 µM.

In the case of `CN(C)CC(O)c1ccc(C=Cc2ccc(Cl)cc2)cc1` (stereo unspecified), the IC50 is 18.4 µM.

For the molecule `c1ccc(-c2csc(Nc3ccccn3)n2)cc1`, the IC50 is 16.8 µM.

Regarding `CCCCOC(=O)Nc1ccc(C(C)C)cc1`, the IC50 is 76.2 µM (inactive).

With `CCc1ccc(C(=O)Nc2ccc3nc(C)ccc3c2)cc1`, the IC50 is 14.2 µM.

In the case of `Brc1ccc2nc(N3CCCC3)sc2c1`, the IC50 is 25.8 µM (inactive).

Take `O=C(Nc1ccc(Cl)c(C(F)(F)F)c1)c1ccco1`: the IC50 is 64.4 µM (inactive).

Regarding `Brc1ccc(-c2nnc(-c3cccnc3)o2)cc1`, the IC50 was > 100 µM (inactive).

For `COc1ccc(C(=O)Nc2nc(-c3cccs3)cs2)cc1`, the IC50 was 24.6 µM (inactive).

In the case of `Cc1cc(OCc2cccc(Cl)c2)c(C)cc1CN1CCOCC1`, the IC50 was 15.2 µM.

In the case of `O=[N+]([O-])c1cccc(-c2c(-c3ccccc3)ncc3cc(F)ccc23)c1`, the IC50 is > 100 µM (inactive).

In the case of `Cc1ccc(-c2nc(-c3ccncc3)no2)c(C)c1`, the IC50 is > 100 µM (inactive).

With `CCCCOC(=O)Nc1ccc(N2CCCCC2)cc1`, the IC50 is 38.8 µM (inactive).

Turning to `c1ccc(N2CCN(c3cnc4ccccc4n3)CC2)cc1`, the IC50 was > 100 µM (inactive).

As for `CN1CCN(c2ccc(NC(=O)c3ccc(Oc4ccccc4)cc3)cc2)CC1`, the IC50 is 12.5 µM.

Consider `O=C(Nc1ccc(OC(F)F)c(Cl)c1)c1cccc(OC(F)F)c1`, for which the IC50 was > 100 µM (inactive).

Take `O=C(Nc1nc(-c2ccc(Cl)s2)cs1)c1cccs1`: the IC50 is 6.63 µM.

For `Cc1nc2ccccc2cc1OCc1ccc(Cl)cc1`, the IC50 is > 100 µM (inactive).

As to `Fc1ccc(-c2nc3ccc(Cl)cn3c2Cc2ccsc2)cc1`, the IC50 was > 100 µM (inactive).

On to `Clc1ccc(OCCCc2nc(-c3ccncc3)no2)c(Cl)c1`, for which the IC50 is 29.5 µM (inactive).

As to `CCOc1ccc(-c2nc(-c3cccnc3)no2)cc1`, the IC50 is 19 µM.

Consider `CC(=O)NS(=O)(=O)c1ccc(Nc2ccc([N+](=O)[O-])c3nonc23)cc1`, for which the IC50 is 57.9 µM (inactive).

Turning to `CSc1ccc(-c2cc(=O)c3ccccc3o2)cc1`, the IC50 is 17.5 µM.

For the molecule `Brc1ccc(-c2nc(-c3ccccn3)no2)o1`, the IC50 is 35.8 µM (inactive).

For `c1ccc(-c2cnc(-c3ccccc3)nn2)cc1`, the IC50 is > 100 µM (inactive).

Take `Clc1ccccc1-c1nc(-c2ccncc2)no1`: the IC50 was 18.4 µM and > 100 µM (inactive).

As to `COc1c(C(=O)Nc2nccs2)ccc2ccccc12`, the IC50 was 41.8 µM (inactive).

In the case of `COc1ccc2c(c1)OC/C(=C/c1cccs1)C2=O`, the IC50 was 16.8 µM.

Consider `O=C(Oc1ccccc1)N1CCN(c2ccc(F)cc2)CC1`, for which the IC50 is > 100 µM (inactive).

With `CCCCOc1ccc(C(=O)OC2CC(C)N(C)CC2C)cc1` (stereo unspecified), the IC50 was 29.2 µM (inactive).

As to `Cc1ccc(-c2noc(-c3cccs3)n2)cc1`, the IC50 was 12.4 µM.

In the case of `CCCCCNC(=O)c1ccccc1SC`, the IC50 is 81.5 µM (inactive).

With `Fc1ccccc1OCCSc1nc2ccccc2o1`, the IC50 is 60.7 µM (inactive).

In the case of `O=C(Nc1nc(-c2ccc(Cl)s2)cs1)c1ccco1`, the IC50 was 15.5 µM.

For `Fc1ccc(CSc2ncnc3ccccc23)cc1`, the IC50 is 24.2 µM (inactive).

For `Clc1ccc(-n2nnc(-c3cccnc3)n2)cc1Cl`, the IC50 is > 100 µM (inactive).

In the case of `CC1=NOC(=O)/C1=C/c1ccc(-c2ccc(Cl)cc2)o1`, the IC50 was > 100 µM (inactive).

On to `O=C(C=Cc1ccccc1)CC(c1ccccc1)N1CCOCC1` (stereo unspecified), for which the IC50 was 10.2 µM.

As to `Clc1ccc(OCc2nc(-c3ccncc3)no2)c(Br)c1`, the IC50 is 31.2 µM (inactive).

Turning to `CCCCCCCCNc1ncnc2ccccc12`, the IC50 was > 100 µM (inactive).

With `O=C(Nc1ccc(SC(F)F)cc1)c1ccccc1F`, the IC50 was 20.3 µM (inactive).

In the case of `O=[N+]([O-])c1ccc(NCc2ccc(Cl)cc2)nc1`, the IC50 was 18.1 µM.

Consider `O=C(/C=C/c1ccc(Cl)cc1Cl)Nc1ccc(CN2CCOCC2)cc1`, for which the IC50 is > 100 µM (inactive).

With `Clc1ccc(-c2nnc(-c3ccccc3)o2)c(Cl)c1`, the IC50 is 1.46 µM.

As for `Cc1nc2ccccc2cc1OCc1ccc(F)cc1`, the IC50 is 24 µM (inactive).

For `Brc1ccc(-c2nnc(-c3ccco3)o2)cc1`, the IC50 is 10.8 µM.

As to `c1csc(-c2nc(-c3ccncc3)no2)c1`, the IC50 is 36.1 µM (inactive).

For `O=C1c2cc(Br)ccc2OC2C=CC=CC12` (stereo unspecified), the IC50 is > 100 µM (inactive).

Turning to `c1ccc(-c2nc(-c3ccncc3)no2)cc1`, the IC50 is 24.7 µM (inactive).

Regarding `Fc1ccccc1-c1nc(-c2ccncc2)no1`, the IC50 is 38.6 µM (inactive).

Regarding `O=C(Nc1nc(-c2ccc(Cl)s2)cs1)c1ccccc1`, the IC50 is 13.2 µM.

Consider `C(=C\c1ccc2ccccc2n1)/c1ccccc1`, for which the IC50 is > 100 µM (inactive).

Take `FCCCOc1ccc(-c2nccc(-c3ccccn3)n2)cc1`: the IC50 is 25.6 µM (inactive).

In the case of `O=C1/C(=C/c2cccs2)CCc2ccccc21`, the IC50 is 34.3 µM (inactive).

For the molecule `O=[N+]([O-])c1ccc(Nc2ccccc2)cc1`, the IC50 is 12.2 µM.

Consider `O=C(/C=C/Nc1ccc(F)c(F)c1)c1cccs1`, for which the IC50 is 11.4 µM.

As for `Brc1ccc2oc(-c3ccn[nH]3)cc2c1`, the IC50 was 10.3 µM.

Take `O=C(Nc1ccc(-c2nnc(-c3ccccc3)o2)cc1)c1ccc(Br)o1`: the IC50 is > 100 µM (inactive).

Regarding `Clc1ccc(C=Cc2ccccn2)c(Cl)c1`, the IC50 is 11.9 µM.

Turning to `COc1cc(SC)ccc1C(=O)Nc1nccs1`, the IC50 was > 100 µM (inactive).

In the case of `Clc1ccc(-c2cc(CSc3ccccc3)on2)cc1`, the IC50 is > 100 µM (inactive).
